A word on the IC50: it is the midpoint of a concentration-inhibition curve.

Data on 24 molecules can be found in ChEMBL document CHEMBL1681728, “An automated, polymer-assisted strategy for the preparation of urea and thiourea derivatives of 15-membered azalides as potential antimalarial chemotherapeutics” (Bioorg Med Chem, 2011).

Common to all, as to assay type: functional, organism-based
The subject of assay [1] is Plasmodium falciparum. The assay is described as follows: Antimalarial activity against chloroquine-,pyrimethamine-resistant Plasmodium falciparum W2 assessed as inhibition of [3H]hypoxanthine incorporation after 96 hrs by microtiter plate scintillation counting.
Assay [2] concerns Plasmodium falciparum. The experiment in a line: Antimalarial activity against chloroquine-sensitive Plasmodium falciparum D6 assessed as inhibition of [3H]hypoxanthine incorporation after 96 hrs by microtiter plate scintillation counting.
In assay [3] the test system is Plasmodium falciparum. The assay is described as follows: Antimalarial activity against multidrug-resistant Plasmodium falciparum TM91C235 assessed as inhibition of [3H]hypoxanthine incorporation after 96 hrs by microtiter plate scintillation counting.

Take `CC[C@H]1OC(=O)[C@H](C)[C@@H](O[C@H]2C[C@@](C)(OC)[C@@H](O)[C@H](C)O2)[C@H](C)[C@@H](O[C@@H]2O[C@H](C)C[C@H](N(C)C)[C@H]2O)[C@](C)(O)C[C@@H](C)CN(CCCNC(=O)Nc2ccc(CC#N)cc2)[C@H](C)[C@@H](O)[C@]1(C)O`: the IC50 in assay [1] is 149 nM; in assay [2] it was 1790 nM; in assay [3], 571 nM.
Taken in the same sequence, the figures for `CC[C@H]1OC(=O)[C@H](C)[C@@H](O[C@H]2C[C@@](C)(OC)[C@@H](O)[C@H](C)O2)[C@H](C)[C@@H](O[C@@H]2O[C@H](C)C[C@H](N(C)C)[C@H]2O)[C@](C)(O)C[C@@H](C)CN(CCCNC(=S)Nc2ccc(Br)cc2)[C@H](C)[C@@H](O)[C@]1(C)O` were 169 nM, 261 nM and 173 nM.
Consider `CC[C@H]1OC(=O)[C@H](C)[C@@H](O[C@H]2C[C@@](C)(OC)[C@@H](O)[C@H](C)O2)[C@H](C)[C@@H](O[C@@H]2O[C@H](C)C[C@H](N(C)C)[C@H]2O)[C@](C)(O)C[C@@H](C)CN(CCCNC(=S)NC2CC3C=CC2C3)[C@H](C)[C@@H](O)[C@]1(C)O` (some centres not stated), for which the half-inhibitory concentration (IC50) came out at 173 nM in assay [1], 302 nM in assay [2] and 183 nM in assay [3].
In the same order, the values of `CC[C@H]1OC(=O)[C@H](C)[C@@H](O[C@H]2C[C@@](C)(OC)[C@@H](O)[C@H](C)O2)[C@H](C)[C@@H](O[C@@H]2O[C@H](C)C[C@H](N(C)C)[C@H]2O)[C@](C)(O)C[C@@H](C)CN(CCCNC(=O)Nc2cccc3nsnc23)[C@H](C)[C@@H](O)[C@]1(C)O` are 69.2 nM, 266 nM and 64.7 nM.
Taken in the same sequence, the figures for `CC[C@H]1OC(=O)[C@H](C)[C@@H](O[C@H]2C[C@@](C)(OC)[C@@H](O)[C@H](C)O2)[C@H](C)[C@@H](O[C@@H]2O[C@H](C)C[C@H](N(C)C)[C@H]2O)[C@](C)(O)C[C@@H](C)CN(CCCNC(=S)Nc2cccnc2)[C@H](C)[C@@H](O)[C@]1(C)O` were 1200 nM, 1210 nM and 801 nM.
Consider `CC[C@H]1OC(=O)[C@H](C)[C@@H](O[C@H]2C[C@@](C)(OC)[C@@H](O)[C@H](C)O2)[C@H](C)[C@@H](O[C@@H]2O[C@H](C)C[C@H](N(C)C)[C@H]2O)[C@](C)(O)C[C@@H](C)CN(CCCNC(=S)Nc2cccc([N+](=O)[O-])c2)[C@H](C)[C@@H](O)[C@]1(C)O`, for which the figures for the IC50 in assay [1], in assay [2] and in assay [3] were 48.3 nM, 53.4 nM and 42.9 nM, respectively.
Taken in the same sequence, the figures for `CC[C@H]1OC(=O)[C@H](C)[C@@H](O[C@H]2C[C@@](C)(OC)[C@@H](O)[C@H](C)O2)[C@H](C)[C@@H](O[C@@H]2O[C@H](C)C[C@H](N(C)C)[C@H]2O)[C@](C)(O)C[C@@H](C)CN(CCCNC(=S)Nc2ccc(N(C)C)c3ccccc23)[C@H](C)[C@@H](O)[C@]1(C)O` were 175 nM, 326 nM and 180 nM.
In the same order, the values of `CC[C@H]1OC(=O)[C@H](C)[C@@H](O[C@H]2C[C@@](C)(OC)[C@@H](O)[C@H](C)O2)[C@H](C)[C@@H](O[C@@H]2O[C@H](C)C[C@H](N(C)C)[C@H]2O)[C@](C)(O)C[C@@H](C)CN(CCCNC(=O)NCc2ccc(OC)cc2)[C@H](C)[C@@H](O)[C@]1(C)O` are 204 nM, 1620 nM and 484 nM.
Taken in the same sequence, the figures for `CC[C@H]1OC(=O)[C@H](C)[C@@H](O[C@H]2C[C@@](C)(OC)[C@@H](O)[C@H](C)O2)[C@H](C)[C@@H](O[C@@H]2O[C@H](C)C[C@H](N(C)C)[C@H]2O)[C@](C)(O)C[C@@H](C)CN(CCCNC(=O)Nc2ccc(C(C)C)cc2)[C@H](C)[C@@H](O)[C@]1(C)O` were 70.9 nM, 225 nM and 78.3 nM.
In the case of `CC[C@H]1OC(=O)[C@H](C)[C@@H](O[C@H]2C[C@@](C)(OC)[C@@H](O)[C@H](C)O2)[C@H](C)[C@@H](O[C@@H]2O[C@H](C)C[C@H](N(C)C)[C@H]2O)[C@](C)(O)C[C@@H](C)CN(CCCNC(=S)Nc2ccsc2C(=O)OC)[C@H](C)[C@@H](O)[C@]1(C)O`, the results for the IC50 in assay [1], in assay [2] and in assay [3] were 375 nM, 452 nM and 330 nM, respectively.
Taken in the same sequence, the figures for `CC[C@H]1OC(=O)[C@H](C)[C@@H](O[C@H]2C[C@@](C)(OC)[C@@H](O)[C@H](C)O2)[C@H](C)[C@@H](O[C@@H]2O[C@H](C)C[C@H](N(C)C)[C@H]2O)[C@](C)(O)C[C@@H](C)CN(CCCNC(=O)NC2CCCCC2)[C@H](C)[C@@H](O)[C@]1(C)O` were 185 nM, 1960 nM and 411 nM.
Regarding `CC[C@H]1OC(=O)[C@H](C)[C@@H](O[C@H]2C[C@@](C)(OC)[C@@H](O)[C@H](C)O2)[C@H](C)[C@@H](O[C@@H]2O[C@H](C)C[C@H](N(C)C)[C@H]2O)[C@](C)(O)C[C@@H](C)CN(CCCNC(=S)NC(=O)c2ccccc2)[C@H](C)[C@@H](O)[C@]1(C)O`, the IC50 turned out to be 107 nM in assay [1], 298 nM in assay [2] and 288 nM in assay [3].
Taken in the same sequence, the figures for `CC[C@H]1OC(=O)[C@H](C)[C@@H](O[C@H]2C[C@@](C)(OC)[C@@H](O)[C@H](C)O2)[C@H](C)[C@@H](O[C@@H]2O[C@H](C)C[C@H](N(C)C)[C@H]2O)[C@](C)(O)C[C@@H](C)CN(CCCNC(=S)Nc2ccc3c(c2)OCO3)[C@H](C)[C@@H](O)[C@]1(C)O` were 182 nM, 329 nM and 173 nM.
In the same order, the values of `CC[C@H]1OC(=O)[C@H](C)[C@@H](O[C@H]2C[C@@](C)(OC)[C@@H](O)[C@H](C)O2)[C@H](C)[C@@H](O[C@@H]2O[C@H](C)C[C@H](N(C)C)[C@H]2O)[C@](C)(O)C[C@@H](C)CN(CCCNC(=O)Nc2ccc(F)c(F)c2)[C@H](C)[C@@H](O)[C@]1(C)O` are 89.6 nM, 300 nM and 127 nM.
Taken in the same sequence, the figures for `CC[C@H]1OC(=O)[C@H](C)[C@@H](O[C@H]2C[C@@](C)(OC)[C@@H](O)[C@H](C)O2)[C@H](C)[C@@H](O[C@@H]2O[C@H](C)C[C@H](N(C)C)[C@H]2O)[C@](C)(O)C[C@@H](C)CN(CCCNC(=O)NC(C)(C)C)[C@H](C)[C@@H](O)[C@]1(C)O` were 410 nM, 5510 nM and 800 nM.
For the molecule `CC[C@H]1OC(=O)[C@H](C)[C@@H](O[C@H]2C[C@@](C)(OC)[C@@H](O)[C@H](C)O2)[C@H](C)[C@@H](O[C@@H]2O[C@H](C)C[C@H](N(C)C)[C@H]2O)[C@](C)(O)C[C@@H](C)CN(CCCNC(=S)NC2CCCCCCCCCCC2)[C@H](C)[C@@H](O)[C@]1(C)O`, the IC50 in assay [1] came to 85 nM; in assay [2] it was 264 nM; in assay [3], 140 nM.
Taken in the same sequence, the figures for `CC[C@H]1OC(=O)[C@H](C)[C@@H](O[C@H]2C[C@@](C)(OC)[C@@H](O)[C@H](C)O2)[C@H](C)[C@@H](O[C@@H]2O[C@H](C)C[C@H](N(C)C)[C@H]2O)[C@](C)(O)C[C@@H](C)CN(CCCNC(=S)Nc2ccc(Cl)c(Cl)c2)[C@H](C)[C@@H](O)[C@]1(C)O` were 229 nM, 296 nM and 84.2 nM.
Taken in the same sequence, the figures for `C=CCNC(=S)NCCCN1C[C@H](C)C[C@@](C)(O)[C@H](O[C@@H]2O[C@H](C)C[C@H](N(C)C)[C@H]2O)[C@@H](C)[C@H](O[C@H]2C[C@@](C)(OC)[C@@H](O)[C@H](C)O2)[C@@H](C)C(=O)O[C@H](CC)[C@@](C)(O)[C@H](O)[C@H]1C` were 276 nM, 1140 nM and 514 nM.
Taken in the same sequence, the figures for `CC[C@H]1OC(=O)[C@H](C)[C@@H](O[C@H]2C[C@@](C)(OC)[C@@H](O)[C@H](C)O2)[C@H](C)[C@@H](O[C@@H]2O[C@H](C)C[C@H](N(C)C)[C@H]2O)[C@](C)(O)C[C@@H](C)CN(CCCNC(=S)Nc2ccc(N3CCOCC3)nc2)[C@H](C)[C@@H](O)[C@]1(C)O` were 1960 nM, 2840 nM and 1570 nM.
In the case of `CC[C@H]1OC(=O)[C@H](C)[C@@H](O[C@H]2C[C@@](C)(OC)[C@@H](O)[C@H](C)O2)[C@H](C)[C@@H](O[C@@H]2O[C@H](C)C[C@H](N(C)C)[C@H]2O)[C@](C)(O)C[C@@H](C)CN(CCCNC(=S)NC(c2ccccc2)c2ccccc2)[C@H](C)[C@@H](O)[C@]1(C)O`, the half-inhibitory concentration (IC50) in assay [1] turned out to be 37.7 nM; in assay [2] it was 218 nM; in assay [3], 55 nM.
Taken in the same sequence, the figures for `CC[C@H]1OC(=O)[C@H](C)[C@@H](O[C@H]2C[C@@](C)(OC)[C@@H](O)[C@H](C)O2)[C@H](C)[C@@H](O[C@@H]2O[C@H](C)C[C@H](N(C)C)[C@H]2O)[C@](C)(O)C[C@@H](C)CN(CCCNC(=O)Nc2ccc(C(F)(F)F)cc2)[C@H](C)[C@@H](O)[C@]1(C)O` were 74.6 nM, 160 nM and 84.2 nM.
Taken in the same sequence, the figures for `CC[C@H]1OC(=O)[C@H](C)[C@@H](O[C@H]2C[C@@](C)(OC)[C@@H](O)[C@H](C)O2)[C@H](C)[C@@H](O[C@@H]2O[C@H](C)C[C@H](N(C)C)[C@H]2O)[C@](C)(O)C[C@@H](C)CN(CCCNC(=O)NCc2ccco2)[C@H](C)[C@@H](O)[C@]1(C)O` were 287 nM, 5610 nM and 496 nM.
For `CC[C@H]1OC(=O)[C@H](C)[C@@H](O[C@H]2C[C@@](C)(OC)[C@@H](O)[C@H](C)O2)[C@H](C)[C@@H](O[C@@H]2O[C@H](C)C[C@H](N(C)C)[C@H]2O)[C@](C)(O)C[C@@H](C)CN(CCCNC(=S)Nc2ccc(OC(F)F)cc2)[C@H](C)[C@@H](O)[C@]1(C)O`, the IC50 in assay [1] was determined as 63 nM; in assay [2], 216 nM; in assay [3], 121 nM.
In the same order, the values of `CC[C@H]1OC(=O)[C@H](C)[C@@H](O[C@H]2C[C@@](C)(OC)[C@@H](O)[C@H](C)O2)[C@H](C)[C@@H](O[C@@H]2O[C@H](C)C[C@H](N(C)C)[C@H]2O)[C@](C)(O)C[C@@H](C)CN(CCCNC(=S)Nc2cc(Cl)cc(Cl)c2)[C@H](C)[C@@H](O)[C@]1(C)O` are 42.5 nM, 116 nM and 55.4 nM.
